Test results from ChEMBL document CHEMBL4477195, “Bridged Epipolythiodiketopiperazines from Penicillium raciborskii, an Endophytic Fungus of Rhododendron tomentosum Harmaja” (2016).
Calls of active or inactive are those of the source. The rule behind the calls is not given here.

Legend:
[1] = test system: Botrytis cinerea; experiment: Antifungal activity against Botrytis cinerea assessed as fungal growth inhibition at 10 to 400 ug/mL incubated in dark for 48 hrs by microspectrophotometric analysis; type: functional
[2] = test system: Verticillium dahliae; experiment: Antifungal activity against Verticillium dahliae assessed as fungal growth inhibition at 0.76 mM incubated in dark for 48 hrs by microspectrophotometric analysis; type: functional, organism-based
[3] = test system: Verticillium dahliae; experiment: Antifungal activity against Verticillium dahliae assessed as fungal growth inhibition at 0.38 mM incubated in dark for 48 hrs by microspectrophotometric analysis; type: functional, organism-based
[4] = test system: Fusarium oxysporum; experiment: Antifungal activity against Fusarium oxysporum assessed as fungal growth inhibition at 0.38 mM incubated in dark for 48 hrs by microspectrophotometric analysis; type: functional, organism-based
[5] = test system: Verticillium dahliae; experiment: Antifungal activity against Verticillium dahliae assessed as fungal growth inhibition at 10 to 400 ug/mL incubated in dark for 48 hrs by microspectrophotometric analysis; type: functional
[6] = test system: Botrytis cinerea; experiment: Antifungal activity against Botrytis cinerea assessed as fungal growth inhibition at 0.38 mM incubated in dark for 48 hrs by microspectrophotometric analysis; type: functional, organism-based
[7] = test system: Fusarium oxysporum; experiment: Antifungal activity against Fusarium oxysporum assessed as fungal growth inhibition at 0.76 mM incubated in dark for 48 hrs by microspectrophotometric analysis; type: functional, organism-based
[8] = test system: Botrytis cinerea; experiment: Antifungal activity against Botrytis cinerea assessed as fungal growth inhibition at 0.76 mM incubated in dark for 48 hrs by microspectrophotometric analysis; type: functional, organism-based

COc1ccc(C2SSS[C@@]34C[C@]5(O)[C@H](O)C=C[C@@H](O)[C@@H]5ON3C(=O)[C@@H]2N(C)C4=O)c(O)c1OC (stereo partly drawn)
growth inhibition (GI) [1]: 57% | growth inhibition (GI) [2]: Active | growth inhibition (GI) [3]: Active | growth inhibition (GI) [4]: Active | growth inhibition (GI) [5]: 45% | growth inhibition (GI) [6]: Active | growth inhibition (GI) [7]: Active | growth inhibition (GI) [8]: Active
